# Article PMC5218480 (PLoS ONE, 2017)
# Tested on: MV-4-11 cells
# Assay: Gene expression microarray analysis (Affymetrix PrimeView) and GSEA
# Assay type: cell-based, human
# Design: RFU PODN (11730768_x_at) / Fold change /veh PODN (11730768_x_at) / RFU LINC00158 (11744669_a_at) / Fold change /veh LINC00158 (11744669_a_at) / RFU DUSP10 (11751237_a_at) / Fold change /veh DUSP10 (11751237_a_at) / RFU ID3 (11757404_x_at) / Fold change /veh ID3 (11757404_x_at) / RFU PLEKHG5 (11737974_s_at) / Fold change /veh PLEKHG5 (11737974_s_at) / RFU LRRC4B (11730491_at) / Fold change /veh LRRC4B (11730491_at) / RFU GIMAP4 (11747438_a_at) / Fold change /veh GIMAP4 (11747438_a_at) / RFU KRT8 (11758183_x_at) / Fold change /veh KRT8 (11758183_x_at) / RFU CNN1 (11734310_a_at) / Fold change /veh CNN1 (11734310_a_at) / RFU VPS37D (11726825_at) / Fold change /veh VPS37D (11726825_at) / RFU C10orf10 (11716522_x_at) / Fold change /veh C10orf10 (11716522_x_at) / RFU KIR2DL2 /// KIR2DL4 /// KIR2DL5A /// KIR2DL5B /// KIR2DS1 /// KIR2DS2 /// KIR2DS3 /// KIR2DS4 /// KIR3DL3 /// KIR3DL3 /// KIR3DS1 (11738374_at) / Fold change /veh KIR2DL2 /// KIR2DL4 /// KIR2DL5A /// KIR2DL5B /// KIR2DS1 /// KIR2DS2 /// KIR2DS3 /// KIR2DS4 /// KIR3DL3 /// KIR3DL3 /// KIR3DS1 (11738374_at) / RFU C1QL1 (11718748_at) / Fold change /veh C1QL1 (11718748_at) / RFU TMPRSS4 (11747572_a_at) / Fold change /veh TMPRSS4 (11747572_a_at) / RFU HAMP (11756126_x_at) / Fold change /veh HAMP (11756126_x_at) / RFU RNFT2 (11725882_a_at) / Fold change /veh RNFT2 (11725882_a_at) / RFU NR4A2 (11747474_a_at) / Fold change /veh NR4A2 (11747474_a_at) / RFU ABCC12 (11746883_a_at) / Fold change /veh ABCC12 (11746883_a_at) / RFU TMEM136 (11760407_x_at) / Fold change /veh TMEM136 (11760407_x_at) / RFU CLDN22 /// WWC2 (11732394_at) / Fold change /veh CLDN22 /// WWC2 (11732394_at) / RFU HLA-DPB1 (11760878_x_at) / Fold change /veh HLA-DPB1 (11760878_x_at) / RFU SPINT1 (11716480_a_at) / Fold change /veh SPINT1 (11716480_a_at) / RFU GAP43 (11754022_s_at) / Fold change /veh GAP43 (11754022_s_at) / RFU A4GNT (11735810_at) / Fold change /veh A4GNT (11735810_at) / RFU PRB3 (11715151_x_at) / Fold change /veh PRB3 (11715151_x_at) / RFU TUBB4B (11761932_at) / Fold change /veh TUBB4B (11761932_at) / RFU CAPN14 (11732068_a_at) / Fold change /veh CAPN14 (11732068_a_at) / RFU TMCC2 (11721928_a_at) / Fold change /veh TMCC2 (11721928_a_at) / RFU IRGQ (11745062_a_at) / Fold change /veh IRGQ (11745062_a_at) / RFU FAM174B (11720279_a_at) / Fold change /veh FAM174B (11720279_a_at) / RFU TMPRSS4 (11748680_a_at) / Fold change /veh TMPRSS4 (11748680_a_at) / RFU FAM212B (11763350_a_at) / Fold change /veh FAM212B (11763350_a_at) / RFU PLEKHG5 (11743358_a_at) / Fold change /veh PLEKHG5 (11743358_a_at) / RFU ZSCAN30 (11745921_a_at) / Fold change /veh ZSCAN30 (11745921_a_at) / RFU CMKLR1 (11741424_a_at) / Fold change /veh CMKLR1 (11741424_a_at) / RFU LOC101060620 /// MAPK8IP1 (11723275_at) / Fold change /veh LOC101060620 /// MAPK8IP1 (11723275_at) / RFU SPTSSB (11747773_x_at) / Fold change /veh SPTSSB (11747773_x_at) / RFU PRSS12 (11739890_at) / Fold change /veh PRSS12 (11739890_at) / RFU BIN1 (11741810_x_at) / Fold change /veh BIN1 (11741810_x_at) / RFU WNT11 (11732464_a_at) / Fold change /veh WNT11 (11732464_a_at) / RFU C10orf10 (11716521_a_at) / Fold change /veh C10orf10 (11716521_a_at) / RFU C5orf56 (11738089_at) / Fold change /veh C5orf56 (11738089_at) / RFU CYB561 (11721691_x_at) / Fold change /veh CYB561 (11721691_x_at) / RFU ANKRD19P (11752326_a_at) / Fold change /veh ANKRD19P (11752326_a_at) / RFU OR2T12 /// OR2T33 /// OR2T8 (11738714_s_at) / Fold change /veh OR2T12 /// OR2T33 /// OR2T8 (11738714_s_at) / RFU VCAN (11748164_a_at) / Fold change /veh VCAN (11748164_a_at) / RFU JSRP1 (11732532_at) / Fold change /veh JSRP1 (11732532_at) / RFU KRTAP10-11 (11738290_x_at) / Fold change /veh KRTAP10-11 (11738290_x_at) / RFU MYO3A (11730013_a_at) / Fold change /veh MYO3A (11730013_a_at) / RFU EBF3 (11725865_a_at) / Fold change /veh EBF3 (11725865_a_at) / RFU CAMK2N1 (11719241_x_at) / Fold change /veh CAMK2N1 (11719241_x_at) / RFU C5orf56 (11738088_a_at) / Fold change /veh C5orf56 (11738088_a_at) / RFU OLFML3 (11715873_a_at) / Fold change /veh OLFML3 (11715873_a_at) / RFU LOC100653217 /// NTM (11731650_a_at) / Fold change /veh LOC100653217 /// NTM (11731650_a_at) / RFU MAPK11 (11762145_a_at) / Fold change /veh MAPK11 (11762145_a_at) / RFU FIZ1 (11724087_x_at) / Fold change /veh FIZ1 (11724087_x_at) / RFU OASL (11726364_x_at) / Fold change /veh OASL (11726364_x_at) / RFU SOX15 (11748057_x_at) / Fold change /veh SOX15 (11748057_x_at) / RFU CD79A (11719716_a_at) / Fold change /veh CD79A (11719716_a_at) / RFU HIST1H1D (11736915_at) / Fold change /veh HIST1H1D (11736915_at) / RFU CASKIN2 (11723855_a_at) / Fold change /veh CASKIN2 (11723855_a_at) / RFU LOC730098 (11760151_x_at) / Fold change /veh LOC730098 (11760151_x_at) / RFU OR4N2 (11742367_at) / Fold change /veh OR4N2 (11742367_at) / RFU PRRT2 (11749266_a_at) / Fold change /veh PRRT2 (11749266_a_at) / RFU SNX32 (11753110_a_at) / Fold change /veh SNX32 (11753110_a_at) / RFU CDHR5 (11726645_a_at) / Fold change /veh CDHR5 (11726645_a_at) / RFU RCAN1 (11760418_a_at) / Fold change /veh RCAN1 (11760418_a_at) / RFU FAM167A (11723789_a_at) / Fold change /veh FAM167A (11723789_a_at) / RFU FAM26E (11764081_at) / Fold change /veh FAM26E (11764081_at) / RFU ISYNA1 (11749810_s_at) / Fold change /veh ISYNA1 (11749810_s_at) / RFU ACY1 (11761880_at) / Fold change /veh ACY1 (11761880_at) / RFU 11764098_at / Fold change /veh 11764098_at / RFU SAMD14 (11745864_x_at) / Fold change /veh SAMD14 (11745864_x_at) / RFU NPB (11741838_a_at) / Fold change /veh NPB (11741838_a_at) / RFU TMPRSS6 (11731388_a_at) / Fold change /veh TMPRSS6 (11731388_a_at) / RFU KRTAP10-2 (11738614_at) / Fold change /veh KRTAP10-2 (11738614_at) / RFU ARHGAP8 /// PRR5-ARHGAP8 (11727945_x_at) / Fold change /veh ARHGAP8 /// PRR5-ARHGAP8 (11727945_x_at) / RFU KRTAP5-7 /// NADSYN1 (11734609_at) / Fold change /veh KRTAP5-7 /// NADSYN1 (11734609_at) / RFU RASL12 (11751679_a_at) / Fold change /veh RASL12 (11751679_a_at) / RFU CDKN2B (11736163_a_at) / Fold change /veh CDKN2B (11736163_a_at) / RFU PRF1 (11729649_at) / Fold change /veh PRF1 (11729649_at) / RFU, ZNF638 /// ZNF638-IT1 / Fold change vs veh, ZNF638 /// ZNF638-IT1 / RFU, PANK3 / Fold change vs veh, PANK3 / RFU, SH3YL1 / Fold change vs veh, SH3YL1 / RFU, ZEB2 / Fold change vs veh, ZEB2 / RFU, NRIP1 / Fold change vs veh, NRIP1 / RFU, PTTG1IP / Fold change vs veh, PTTG1IP / RFU, CAPN2 / Fold change vs veh, CAPN2 / RFU, MED14 / Fold change vs veh, MED14 / RFU, SNORA58 / Fold change vs veh, SNORA58 / RFU, C1orf63 / Fold change vs veh, C1orf63 / RFU, LRRFIP1 / Fold change vs veh, LRRFIP1 / RFU, NDUFAF7 / Fold change vs veh, NDUFAF7 / RFU, SLC12A2 / Fold change vs veh, SLC12A2 / RFU, IBTK / Fold change vs veh, IBTK / RFU, ESF1 / Fold change vs veh, ESF1 / Fold change vs veh, TMEM50B / RFU, TAOK1 / Fold change vs veh, TAOK1 / RFU, ACBD3 / Fold change vs veh, ACBD3 / RFU, TMA16 / Fold change vs veh, TMA16 / RFU, RWDD3 / Fold change vs veh, RWDD3 / RFU, BCAT1 / Fold change vs veh, BCAT1 / RFU, EDEM3 / Fold change vs veh, EDEM3 / RFU, TMEM33 / Fold change vs veh, TMEM33 / RFU, WDR75 / Fold change vs veh, WDR75 / RFU, AHCTF1 / Fold change vs veh, AHCTF1 / RFU, TFRC / Fold change vs veh, TFRC / RFU, ZDHHC17 / Fold change vs veh, ZDHHC17 / RFU, NOM1 / Fold change vs veh, NOM1 / RFU, ARL8B / Fold change vs veh, ARL8B / RFU, ZBTB11 / Fold change vs veh, ZBTB11 / RFU, TAMM41 / Fold change vs veh, TAMM41 / RFU, KIAA1704 /// LOC100996395 / Fold change vs veh, KIAA1704 /// LOC100996395 / RFU, ING1 / Fold change vs veh, ING1 / RFU, TRMT61B / Fold change vs veh, TRMT61B / RFU, FUBP3 / Fold change vs veh, FUBP3 / RFU, TP53 / Fold change vs veh, TP53 / RFU, TNKS2 / Fold change vs veh, TNKS2 / RFU, ZFP14 / Fold change vs veh, ZFP14 / RFU, ACTR2 / Fold change vs veh, ACTR2 / RFU, PPP3R1 / Fold change vs veh, PPP3R1 / RFU, PIK3R1 / Fold change vs veh, PIK3R1 / RFU, HNRNPA1 / Fold change vs veh, HNRNPA1 / RFU, RNF170 / Fold change vs veh, RNF170 / RFU, ZNF28 / Fold change vs veh, ZNF28 / RFU, RNGTT / Fold change vs veh, RNGTT / RFU, OGT / Fold change vs veh, OGT / RFU, BRD1 / Fold change vs veh, BRD1 / RFU, MARS / Fold change vs veh, MARS / RFU, ZNF655 / Fold change vs veh, ZNF655 / RFU, FAHD1 / Fold change vs veh, FAHD1 / RFU, BDP1 / Fold change vs veh, BDP1 / RFU, LRRCC1 / Fold change vs veh, LRRCC1 / RFU, ARID1A / Fold change vs veh, ARID1A / RFU, ZNF146 / Fold change vs veh, ZNF146 / RFU, ZNF330 / Fold change vs veh, ZNF330 / RFU, GPN3 / Fold change vs veh, GPN3 / RFU, C9orf123 / Fold change vs veh, C9orf123 / RFU, N4BP2L2 / Fold change vs veh, N4BP2L2 / RFU, ARFIP1 / Fold change vs veh, ARFIP1 / RFU, FAM179B / Fold change vs veh, FAM179B / RFU, BCL10 / Fold change vs veh, BCL10 / RFU, UHRF1BP1L / Fold change vs veh, UHRF1BP1L / RFU, BET1 / Fold change vs veh, BET1 / RFU, CNOT2 / Fold change vs veh, CNOT2 / RFU, ZNF268 / Fold change vs veh, ZNF268 / Fold change vs veh, ZNF507 / RFU, DGCR2 / Fold change vs veh, DGCR2 / RFU, WDSUB1 / Fold change vs veh, WDSUB1 / Fold change vs veh, HSP90B1 /// MIR3652 / RFU, ADSS / Fold change vs veh, ADSS / RFU, GK / Fold change vs veh, GK / RFU, ZNF148 / Fold change vs veh, ZNF148 / RFU, TAF9 / Fold change vs veh, TAF9 / RFU, SLC1A5 / Fold change vs veh, SLC1A5 / RFU, SLMO2 / Fold change vs veh, SLMO2 / RFU, ABCC4 / Fold change vs veh, ABCC4 / RFU, LOC101060439 /// RAP1B / Fold change vs veh, LOC101060439 /// RAP1B / RFU, RFX7 / Fold change vs veh, RFX7 / RFU, GTPBP10 / Fold change vs veh, GTPBP10 / RFU, CNEP1R1 / Fold change vs veh, CNEP1R1 / RFU, BIVM-ERCC5 /// ERCC5 / Fold change vs veh, BIVM-ERCC5 /// ERCC5 / RFU, ILF3 / Fold change vs veh, ILF3 / RFU 11762660_at / Fold change /veh 11762660_at / RFU VCAN (11757783_s_at) / Fold change /veh VCAN (11757783_s_at) / RFU DDX43 (11728927_at) / Fold change /veh DDX43 (11728927_at) / RFU KRT8 (11758188_x_at) / Fold change /veh KRT8 (11758188_x_at) / RFU NKD1 (11759106_at) / Fold change /veh NKD1 (11759106_at) / RFU SRD5A1 (11742802_a_at) / Fold change /veh SRD5A1 (11742802_a_at) / RFU TPSAB1 /// TPSB2 (11721975_s_at) / Fold change /veh TPSAB1 /// TPSB2 (11721975_s_at) / RFU GSTM3 (11746129_a_at) / Fold change /veh GSTM3 (11746129_a_at) / RFU IL23R (11737362_x_at) / Fold change /veh IL23R (11737362_x_at) / RFU TMEM51 (11727254_a_at) / Fold change /veh TMEM51 (11727254_a_at) / RFU PIWIL2 (11732686_x_at) / Fold change /veh PIWIL2 (11732686_x_at) / RFU ORM1 (11744905_x_at) / Fold change /veh ORM1 (11744905_x_at) / RFU CCDC152 (11743942_at) / Fold change /veh CCDC152 (11743942_at) / RFU ECM1 (11717891_a_at) / Fold change /veh ECM1 (11717891_a_at) / RFU IL23R (11748794_a_at) / Fold change /veh IL23R (11748794_a_at) / RFU TNFAIP8L3 (11732012_x_at) / Fold change /veh TNFAIP8L3 (11732012_x_at) / RFU MBOAT4 (11741988_at) / Fold change /veh MBOAT4 (11741988_at) / RFU 11764193_at / Fold change /veh 11764193_at / RFU TMEM53 (11763286_at) / Fold change /veh TMEM53 (11763286_at) / RFU MAGEB2 (11727129_at) / Fold change /veh MAGEB2 (11727129_at) / RFU TMEM200A (11744735_a_at) / Fold change /veh TMEM200A (11744735_a_at) / RFU CCDC152 (11751479_a_at) / Fold change /veh CCDC152 (11751479_a_at) / RFU FAM211A (11726209_a_at) / Fold change /veh FAM211A (11726209_a_at) / RFU RGS16 (11746705_a_at) / Fold change /veh RGS16 (11746705_a_at) / RFU VCAN (11755009_s_at) / Fold change /veh VCAN (11755009_s_at) / RFU RHOB (11743442_s_at) / Fold change /veh RHOB (11743442_s_at) / RFU RGS16 (11720943_a_at) / Fold change /veh RGS16 (11720943_a_at) / RFU RGS16 (11720944_at) / Fold change /veh RGS16 (11720944_at) / RFU, VPS4B / Fold change vs veh, VPS4B / RFU, CREB1 / Fold change vs veh, CREB1 / RFU, DNAJC13 / Fold change vs veh, DNAJC13 / RFU, GNAQ / Fold change vs veh, GNAQ / RFU, CDK5R1 / Fold change vs veh, CDK5R1 / RFU, ZRANB3 / Fold change vs veh, ZRANB3 / RFU, CUL4A / Fold change vs veh, CUL4A / RFU, CCNY / Fold change vs veh, CCNY / RFU, UFL1 / Fold change vs veh, UFL1 / RFU, COG3 / Fold change vs veh, COG3 / RFU, DIAPH2 / Fold change vs veh, DIAPH2 / RFU, SKA2 / Fold change vs veh, SKA2 / RFU, AFF3 / Fold change vs veh, AFF3 / RFU, LMF1 / Fold change vs veh, LMF1 / RFU, IPO11 / Fold change vs veh, IPO11 / RFU, DFFB / Fold change vs veh, DFFB / RFU, FOXP1 / Fold change vs veh, FOXP1 / RFU, CARD8 / Fold change vs veh, CARD8 / RFU, STRN3 / Fold change vs veh, STRN3 / RFU, ADK / Fold change vs veh, ADK / RFU, RASSF2 / Fold change vs veh, RASSF2 / RFU, WIPF1 / Fold change vs veh, WIPF1 / RFU, LARP1B / Fold change vs veh, LARP1B / RFU, RASA1 / Fold change vs veh, RASA1 / RFU, RB1 / Fold change vs veh, RB1 / RFU, PPFIA1 / Fold change vs veh, PPFIA1 / RFU, MAT2A / Fold change vs veh, MAT2A / RFU, CCT5 / Fold change vs veh, CCT5 / RFU, WDR92 / Fold change vs veh, WDR92 / RFU, CUX1 / Fold change vs veh, CUX1 / RFU, TTC7A / Fold change vs veh, TTC7A / RFU, TMEM135 / Fold change vs veh, TMEM135 / RFU, DEPTOR / Fold change vs veh, DEPTOR / RFU, CPM / Fold change vs veh, CPM / RFU, DNAJB6 / Fold change vs veh, DNAJB6 / RFU, CACNA2D3 / Fold change vs veh, CACNA2D3 / RFU, DTX4 / Fold change vs veh, DTX4 / RFU, TFCP2 / Fold change vs veh, TFCP2 / RFU, GMCL1 /// GMCL1P1 / Fold change vs veh, GMCL1 /// GMCL1P1 / RFU, AEBP2 / Fold change vs veh, AEBP2 / RFU, SNHG1 /// SNORD22 /// SNORD25 /// SNORD26 /// SNORD27 /// SNORD28 /// SNORD29 /// SNORD31 / Fold change vs veh, SNHG1 /// SNORD22 /// SNORD25 /// SNORD26 /// SNORD27 /// SNORD28 /// SNORD29 /// SNORD31 / Fold change (Aza/veh), C12orf56 (ProbeSet 11735607_a_at) / Fold change (ACY-1035/veh), C12orf56 (ProbeSet 11735607_a_at) / Fold change (Aza/veh), FGFR1OP (ProbeSet 11751329_s_at) / Fold change (ACY-1035/veh), FGFR1OP (ProbeSet 11751329_s_at) / Fold change (Aza/veh), VPS36 (ProbeSet 11739960_a_at) / Fold change (ACY-1035/veh), VPS36 (ProbeSet 11739960_a_at) / RFU SYPL1 (11715823_x_at) / Fold change /veh SYPL1 (11715823_x_at) / RFU IGFBP7 (11715501_s_at) / Fold change /veh IGFBP7 (11715501_s_at) / RFU REEP3 (11722064_at) / Fold change /veh REEP3 (11722064_at) / RFU IGLL1 (11728026_x_at) / Fold change /veh IGLL1 (11728026_x_at): dose or concentration left out as unconfirmed
# Settings: MV-4-11 cells, 48 hours
structure (smiles),measurement,value
Nc1ccc(-c2cccs2)cc1NC(=O)c1ccc2c(c1)cc(C1CC1)n2CCN1CCOCC1 [ACY-1035],Fold change /veh RASL12 (11751679_a_at),1.18
